Source: patent US20230382926A1, “COMPOUNDS AND USES THEREOF” (The University of The West Indies, priority 2022, published 2023)

Columns and labels:
Assay in all cases: Rescue concentration, modified checkerboard MIC adjuvant assay
Assay type in all cases: cell-based
[1] = test system: Pseudomonas aeruginosa MDR 5805; conditions: P. aeruginosa MDR 5805
Method: (§1) Reference microorganisms as well as clinical strains used to evaluate the antimicrobial adjuvant properties of SP-6azaBIM 125 and SP-6azaBIM 136 are listed in Table 3. Clinical strains of bacteria were kindly provided by the Faculty of Medical Sciences, UWI, St. Augustine, Trinidad. All bacterial cultures were cryopreserved in 30% glycerol/Brain Heart Infusion (BHI) at −80° C. Cultures were revived on BHI agar (Oxoid Ltd, England) and maintained at 4° C. until needed.
(§2) Prior to each experiment, cultures were streaked onto clean BHI agar plates and incubated at 35° C. for 24 hours. Colonies of the respective cultures were selected and inoculated in phosphate buffer saline (pH 7.5) to a 0.5 McFarland turbidity standard (equivalent to 10^8 CFU mL^−1). For inhibitory studies the bacterial suspensions were diluted 1:100 in cation-adjusted Mueller Hinton Broth (ca-MHB) (Oxoid Ltd, England). Fastidious bacteria including Streptococcus pneumoniae, Haemophilus infuenzae and Clostridium difficile were maintained on BHI agar with 5% defibrinated sheep blood and diluted in ca-MHB with 5% defibrinated sheep blood.
(§3) Antibiotic powders used in this study were purchased from Sigma Aldrich Ltd. (WI, USA). Antibiotic stock solutions were made at 50 mg mL^−1 according to Andrews (2001) and working solutions were prepared 24 h before use and stored at 4° C.
(§4) HCl salts of the of the SP-azaBIM test compounds were prepared prior to testing and stored at 4° C. Working preparations of each compound were made to 1 mg/mL in sterile deionised water.
(§5) The antibiotic adjuvant activity of the SPazaBIMs were evaluated in combination with representative antibiotics (representing 13 antibiotic classes) against the 19 pathogens strains listed in Table 3. To assess the adjuvant properties of the SP-azaBIM molecules, a modified checkerboard minimum inhibitory concentration assay was used. A fixed concentration of the respective antibiotic (susceptible breakpoint concentration) was mixed with a twofold dilution series of the test SP-azaBIM (FIG. 1). This was to determine the concentration of SP-azaBIM needed potentiate the antibiotic at a clinically susceptible breakpoint concentration. Antibiotic susceptible breakpoint concentrations for the respective bacteria were determined using Clinical Laboratory Standards Institute (CLSI) criteria M100 ED31.
(§6) In this study, only those antibiotics to which the bacterial was classed as resistant were included in the adjuvant assays. In this assay we recorded the rescue concentration of the SP-BIM for a respective antibiotic. The rescue concentration was defined as the concentration of the adjuvant that reduces the minimum inhibitory concentration (MIC) of an antibiotic to the susceptibility breakpoint.
(§7) Immediately prior to testing, the respective antibiotic and SP-azaBIM was dissolved in sterile deionised water at 20× the required test concentration. Each microtiter well was then inoculated with 180 μl of bacterial inoculum of 10^6 CFU/ml in ca-MHB, and 10 μl each if the antibiotic and SP-azaBIM was added to the plates. These plates were then incubated at 35° C. for 24 h under aerobic conditions. A similar method was followed for the fastidious pathogens except that they were cultured in ca-MHB with 5% sheep blood and 5% CO2.
(§8) Bacterial growth was visually inspected after the incubation period and the rescue concentration of the test SP-azaBIM was determined as the lowest concentration of the compound needed to reduce bacterial growth by 99.99% at the susceptible breakpoint concentration of the antibiotic. For example, CLSI states that Pseudomonas aeruginosa is susceptible to the Imipenem if the MIC is ≤2 μg mL^−1. If the bacteria can tolerate this concentration in vitro, then the bacteria has an intermediate or absolute resistance toward that antibiotic. […]

[2] = test system: Enterobacter cloacae ATCC BAA-1143; conditions: E. cloacae ATCC BAA-1143
Method: as §1, §2, §3, §4, §5, §6, §7, §8

[3] = test system: Escherichia coli ATCC 35150; conditions: E. coli ATCC 35150
Method: as §1, §2, §3, §4, §5, §6, §7, §8

[4] = test system: Acinetobacter baumannii clinical isolate 9978; conditions: A. baumannii clinical isolate 9978
Method: as §1, §2, §3, §4, §5, §6, §7, §8

[5] = test system: Enterococcus faecalis ATCC 51299; conditions: E. faecalis ATCC 51299
Method: as §1, §2, §3, §4, §5, §6, §7, §8

[6] = test system: Stenotrophomonas maltophilia MDR 7785; conditions: S. maltophilia MDR 7785
Method: as §1, §2, §3, §4, §5, §6, §7, §8

[7] = test system: Staphylococcus aureus ATCC BAA-2312; conditions: S. aureus ATCC BAA-2312
Method: as §1, §2, §3, §4, §5, §6, §7, §8

[8] = test system: Streptococcus pneumoniae ATCC 49619; conditions: S. pneumoniae ATCC 49619
Method: as §1, §2, §3, §4, §5, §6, §7, §8

[9] = test system: Klebsiella pneumoniae ATCC 49472; conditions: K. pneumoniae ATCC 49472
Method: as §1, §2, §3, §4, §5, §6, §7, §8

[10] = Amox at susceptible breakpoint 8 μg mL^−1
[11] = Col at susceptible breakpoint 2 μg mL^−1
[12] = Gen at susceptible breakpoint 4 μg mL^−1
[13] = Imi at susceptible breakpoint 2 μg mL^−1
[14] = Mero at susceptible breakpoint 2 μg mL^−1
[15] = Pol B at susceptible breakpoint 2 μg mL^−1
[16] = Amp at susceptible breakpoint 8 μg mL^−1
[17] = Ceph at susceptible breakpoint 8 μg mL^−1
[18] = Chl at susceptible breakpoint 8 μg mL^−1
[19] = Col at susceptible breakpoint 8 μg mL^−1
[20] = Dox at susceptible breakpoint 4 μg mL^−1
[21] = Imi at susceptible breakpoint 1 μg mL^−1
[22] = Cef at susceptible breakpoint 8 μg mL^−1
[23] = Tri at susceptible breakpoint 8 μg mL^−1

`Brc1ccc(C(c2c[nH]c3ncccc23)c2c[nH]c3ncccc23)cc1` [SP-7azaBIM 126, 3,3′-((4-bromophenyl)methylene)bis(1H-pyrrolo[2,3-b]pyridine)] was tested, and the “Rescue concentration, Amox (8)” value [1, 10] was >128 µg/mL, the “Rescue concentration, Col (2)” value [1, 11] was >128 µg/mL and the “Rescue concentration, Gen (4)” value [1, 12] was >128 µg/mL. For the same compound, the “Rescue concentration, Imi (2)” value [1, 13] was >128 µg/mL, the “Rescue concentration, Mero (2)” value [1, 14] was >128 µg/mL and the “Rescue concentration, Pol B (2)” value [1, 15] was >128 µg/mL. The “Rescue concentration, Amp (8)” value [2, 16] was 128 µg/mL, the “Rescue concentration, Azi (16)” value ([2]; Azi at susceptible breakpoint 16 μg mL^−1) was >128 µg/mL and the “Rescue concentration, Ceph (8)” value [2, 17] was >128 µg/mL. The “Rescue concentration, Chl (8)” value [2, 18] was >128 µg/mL, the “Rescue concentration, Col (8)” value [2, 19] was >128 µg/mL and the “Rescue concentration, Dox (4)” value [2, 20] was >128 µg/mL. The “Rescue concentration, Gen (4)” value [2, 12] was >128 µg/mL, the “Rescue concentration, Imi (1)” value [2, 21] was >128 µg/mL and the “Rescue concentration, Tet (4)” value ([2]; Tet at susceptible breakpoint 4 μg mL^−1) was >128 µg/mL. For the same compound, the “Rescue concentration, Amp (8)” value [3, 16] was >128 µg/mL, the “Rescue concentration, Cip (0.25)” value ([3]; Cip at susceptible breakpoint 0.25 μg mL^−1) was >128 µg/mL and the “Rescue concentration, Col (8)” value [3, 19] was >128 µg/mL. The “Rescue concentration, Dox (4)” value [3, 20] was >128 µg/mL, the “Rescue concentration, Gen (4)” value [3, 12] was >128 µg/mL and the “Rescue concentration, Imi (1)” value [3, 21] was >128 µg/mL. The “Rescue concentration, Amox (8)” value [4, 10] was >128 µg/mL, the “Rescue concentration, Cef (8)” value [4, 22] was >128 µg/mL and the “Rescue concentration, Col (2)” value [4, 11] was >128 µg/mL. For the same compound, the “Rescue concentration, Gen (4)” value [4, 12] was >128 µg/mL, the “Rescue concentration, Imi (2)” value [4, 13] was >128 µg/mL and the “Rescue concentration, Mero (2)” value [4, 14] was >128 µg/mL. For the same compound, the “Rescue concentration, Pol B (2)” value [4, 15] was >128 µg/mL, the “Rescue concentration, Amp (8)” value [5, 16] was 32 µg/mL and the “Rescue concentration, Chl (8)” value [5, 18] was >128 µg/mL. The “Rescue concentration, Dox (4)” value [5, 20] was >128 µg/mL, the “Rescue concentration, Ery (0.5)” value ([5]; Ery at susceptible breakpoint 0.5 μg mL^−1) was >128 µg/mL and the “Rescue concentration, Tri (8)” value [5, 23] was >128 µg/mL. The “Rescue concentration, Van (4)” value ([5]; Van at susceptible breakpoint 4 μg mL^−1) was 64 µg/mL, the “Rescue concentration, Cef (8)” value [6, 22] was >128 µg/mL and the “Rescue concentration, Ceph (8)” value [6, 17] was >128 µg/mL. The “Rescue concentration, Chl (8)” value [6, 18] was >128 µg/mL, the “Rescue concentration, Cip (2)” value ([6]; Cip at susceptible breakpoint 2 μg mL^−1) was >128 µg/mL and the “Rescue concentration, Gen (4)” value [6, 12] was >128 µg/mL. For the same compound, the “Rescue concentration, Imi (2)” value [6, 13] was 16 µg/mL, the “Rescue concentration, Mero (2)” value [6, 14] was 32 µg/mL and the “Rescue concentration, Tri (2)” value ([6]; Tri at susceptible breakpoint 2 μg mL^−1) was >128 µg/mL. The “Rescue concentration, Azi (2)” value ([7]; Azi at susceptible breakpoint 2 μg mL^−1) was >128 µg/mL, the “Rescue concentration, Gen (4)” value [7, 12] was >128 µg/mL and the “Rescue concentration, Pen (0.12)” value ([7]; Pen at susceptible breakpoint 0.12 μg mL^−1) was >128 µg/mL. For the same compound, the “Rescue concentration, Tri (8)” value [7, 23] was >128 µg/mL, the “Rescue concentration, Van (2)” value ([7]; Van at susceptible breakpoint 2 μg mL^−1) was >128 µg/mL and the “Rescue concentration, Amox (2)” value ([8]; Amox at susceptible breakpoint 2 μg mL^−1) was >128 µg/mL. The “Rescue concentration, Ery (0.25)” value ([8]; Ery at susceptible breakpoint 0.25 μg mL^−1) was >128 µg/mL, the “Rescue concentration, Imi (0.12)” value ([8]; Imi at susceptible breakpoint 0.12 μg mL^−1) was >128 µg/mL and the “Rescue concentration, Amox (8)” value [9, 10] was >128 µg/mL. The “Rescue concentration, Amp (8)” value [9, 16] was >128 µg/mL, the “Rescue concentration, Col (8)” value [9, 19] was >128 µg/mL and the “Rescue concentration, Imi (1)” value [9, 21] was >128 µg/mL. The “Rescue concentration, Mero (1)” value ([9]; Mero at susceptible breakpoint 1 μg mL^−1) was >128 µg/mL and the “Rescue concentration, Pol B (8)” value ([9]; Pol B at susceptible breakpoint 8 μg mL^−1) was >128 µg/mL.
